{
  "source": "ChEMBL document CHEMBL5653631",
  "about": "“A Potent and Selective ULK1 Inhibitor Suppresses Autophagy and Sensitizes Cancer Cells to Nutrient Stress” (iScience, 2018)",
  "key": {"[1]": {"molecular_target": "PAS domain-containing serine/threonine-protein kinase (Homo sapiens) (UniProt Q96RG2)", "sequence (Q96RG2 whole entry, the tested form may be a part)": "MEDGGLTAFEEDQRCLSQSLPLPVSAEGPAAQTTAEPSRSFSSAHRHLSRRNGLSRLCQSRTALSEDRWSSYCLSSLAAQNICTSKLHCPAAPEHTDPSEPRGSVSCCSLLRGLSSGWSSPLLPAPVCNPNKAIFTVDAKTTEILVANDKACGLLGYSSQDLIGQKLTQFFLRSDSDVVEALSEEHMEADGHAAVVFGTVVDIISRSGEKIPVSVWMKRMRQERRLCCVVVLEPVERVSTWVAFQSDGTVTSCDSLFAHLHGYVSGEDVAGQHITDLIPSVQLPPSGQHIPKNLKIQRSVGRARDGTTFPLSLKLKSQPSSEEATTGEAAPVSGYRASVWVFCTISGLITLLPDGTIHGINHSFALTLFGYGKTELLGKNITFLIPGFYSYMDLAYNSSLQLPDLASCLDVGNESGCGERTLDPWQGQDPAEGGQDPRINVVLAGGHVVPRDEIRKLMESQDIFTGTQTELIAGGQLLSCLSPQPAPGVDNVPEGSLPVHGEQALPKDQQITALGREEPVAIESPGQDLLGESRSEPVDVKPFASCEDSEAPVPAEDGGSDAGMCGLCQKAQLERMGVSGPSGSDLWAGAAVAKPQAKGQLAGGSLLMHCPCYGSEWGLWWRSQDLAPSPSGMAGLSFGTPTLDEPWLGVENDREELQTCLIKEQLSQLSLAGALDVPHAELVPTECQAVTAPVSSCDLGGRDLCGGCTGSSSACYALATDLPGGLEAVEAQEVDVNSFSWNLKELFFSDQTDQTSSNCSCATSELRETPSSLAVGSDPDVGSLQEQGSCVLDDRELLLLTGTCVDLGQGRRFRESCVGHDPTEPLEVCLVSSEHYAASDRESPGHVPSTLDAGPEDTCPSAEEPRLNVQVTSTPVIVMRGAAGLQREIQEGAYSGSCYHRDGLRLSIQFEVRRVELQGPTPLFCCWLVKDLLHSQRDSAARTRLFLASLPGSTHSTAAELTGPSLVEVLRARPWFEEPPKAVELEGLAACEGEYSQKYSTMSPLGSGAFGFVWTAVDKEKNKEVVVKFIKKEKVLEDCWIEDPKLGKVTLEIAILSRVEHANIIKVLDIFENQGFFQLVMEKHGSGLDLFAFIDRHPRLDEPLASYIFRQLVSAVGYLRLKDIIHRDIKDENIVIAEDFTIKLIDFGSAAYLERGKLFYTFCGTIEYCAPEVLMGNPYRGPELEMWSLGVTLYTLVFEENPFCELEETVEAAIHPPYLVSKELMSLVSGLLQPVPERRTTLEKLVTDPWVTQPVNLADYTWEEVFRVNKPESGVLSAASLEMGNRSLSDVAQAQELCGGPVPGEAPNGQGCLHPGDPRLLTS", "experiment": "Inhibition of human recombinant PASK at 40 nM in presence of ATP by radiometric assay relative to control"}, "[2]": {"molecular_target": "Serine/threonine-protein kinase tousled-like 2 (Homo sapiens) (UniProt Q86UE8)", "sequence (Q86UE8 whole entry, looked up)": "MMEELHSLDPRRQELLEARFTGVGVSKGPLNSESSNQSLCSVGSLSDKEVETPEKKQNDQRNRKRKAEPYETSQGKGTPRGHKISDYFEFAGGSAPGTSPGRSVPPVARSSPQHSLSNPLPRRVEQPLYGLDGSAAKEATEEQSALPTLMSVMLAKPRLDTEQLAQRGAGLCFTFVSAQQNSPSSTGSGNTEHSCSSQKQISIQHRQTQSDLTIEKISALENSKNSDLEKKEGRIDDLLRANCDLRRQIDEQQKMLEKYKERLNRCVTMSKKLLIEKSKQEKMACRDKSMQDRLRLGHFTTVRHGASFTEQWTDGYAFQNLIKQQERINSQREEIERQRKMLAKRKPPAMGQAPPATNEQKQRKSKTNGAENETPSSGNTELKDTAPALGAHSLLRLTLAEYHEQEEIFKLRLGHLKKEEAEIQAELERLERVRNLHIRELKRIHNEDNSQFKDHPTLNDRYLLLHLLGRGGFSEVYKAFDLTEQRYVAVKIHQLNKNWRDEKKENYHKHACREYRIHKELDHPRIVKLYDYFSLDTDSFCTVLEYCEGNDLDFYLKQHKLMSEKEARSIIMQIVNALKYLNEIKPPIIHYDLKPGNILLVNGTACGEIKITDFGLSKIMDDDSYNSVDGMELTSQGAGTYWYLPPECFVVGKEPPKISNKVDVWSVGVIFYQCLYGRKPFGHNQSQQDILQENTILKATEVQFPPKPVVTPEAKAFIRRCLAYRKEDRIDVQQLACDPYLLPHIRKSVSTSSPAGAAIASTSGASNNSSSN", "experiment": "Inhibition of human recombinant TLK2 at 40 nM related to control ULK1"}, "[3]": {"molecular_target": "T1, Serine/threonine-protein kinase Sgk2 (Homo sapiens) (UniProt Q9HBY8)", "T1 sequence (whole entry)": "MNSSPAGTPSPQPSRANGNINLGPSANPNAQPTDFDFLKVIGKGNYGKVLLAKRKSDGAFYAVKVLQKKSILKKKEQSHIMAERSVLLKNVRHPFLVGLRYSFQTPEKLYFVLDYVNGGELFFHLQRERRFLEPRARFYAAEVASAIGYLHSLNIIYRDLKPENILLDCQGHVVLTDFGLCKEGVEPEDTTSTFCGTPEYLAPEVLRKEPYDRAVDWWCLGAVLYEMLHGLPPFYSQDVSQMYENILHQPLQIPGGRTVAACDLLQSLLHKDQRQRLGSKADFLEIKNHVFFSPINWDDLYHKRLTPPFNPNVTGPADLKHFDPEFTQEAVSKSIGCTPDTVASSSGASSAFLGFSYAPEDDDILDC", "experiment": "Inhibition of human recombinant SGK2 at 40 nM in presence of ATP by radiometric assay relative to control"}, "[4]": {"molecular_target": "Serine/threonine-protein kinase SBK1 (Homo sapiens) (UniProt Q52WX2)", "sequence (Q52WX2 whole entry)": "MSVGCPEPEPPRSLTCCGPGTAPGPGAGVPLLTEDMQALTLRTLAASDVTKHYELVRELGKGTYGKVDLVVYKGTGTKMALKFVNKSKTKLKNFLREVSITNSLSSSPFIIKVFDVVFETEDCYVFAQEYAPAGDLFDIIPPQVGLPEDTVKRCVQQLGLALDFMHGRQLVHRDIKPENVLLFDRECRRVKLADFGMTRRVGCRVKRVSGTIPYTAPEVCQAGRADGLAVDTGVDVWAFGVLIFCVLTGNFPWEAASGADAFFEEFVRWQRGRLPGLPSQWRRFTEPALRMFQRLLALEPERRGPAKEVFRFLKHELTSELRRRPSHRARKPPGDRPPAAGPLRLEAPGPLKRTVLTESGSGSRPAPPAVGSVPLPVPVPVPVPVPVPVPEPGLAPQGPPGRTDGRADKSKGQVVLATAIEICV", "experiment": "Inhibition of human recombinant SBK1 at 40 nM related to control ULK1"}, "[5]": {"molecular_target": "T2, Serine/threonine-protein kinase 17B (Homo sapiens) (UniProt O94768)", "T2 sequence (whole entry)": "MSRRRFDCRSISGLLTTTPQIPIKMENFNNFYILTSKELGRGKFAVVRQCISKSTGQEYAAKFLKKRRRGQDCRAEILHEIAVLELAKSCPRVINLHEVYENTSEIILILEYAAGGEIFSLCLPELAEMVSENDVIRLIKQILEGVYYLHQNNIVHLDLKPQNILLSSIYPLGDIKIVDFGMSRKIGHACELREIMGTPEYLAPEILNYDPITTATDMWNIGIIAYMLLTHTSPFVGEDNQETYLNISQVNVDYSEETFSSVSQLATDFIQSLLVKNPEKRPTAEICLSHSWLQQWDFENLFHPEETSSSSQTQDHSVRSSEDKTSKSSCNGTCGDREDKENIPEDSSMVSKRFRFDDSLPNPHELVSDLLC", "experiment": "Inhibition of human recombinant DRAK2 at 40 nM related to control ULK1"}, "[6]": {"molecular_target": "T3, Testis-specific serine/threonine-protein kinase 3 (Homo sapiens) (UniProt Q96PN8)", "T3 sequence (whole entry)": "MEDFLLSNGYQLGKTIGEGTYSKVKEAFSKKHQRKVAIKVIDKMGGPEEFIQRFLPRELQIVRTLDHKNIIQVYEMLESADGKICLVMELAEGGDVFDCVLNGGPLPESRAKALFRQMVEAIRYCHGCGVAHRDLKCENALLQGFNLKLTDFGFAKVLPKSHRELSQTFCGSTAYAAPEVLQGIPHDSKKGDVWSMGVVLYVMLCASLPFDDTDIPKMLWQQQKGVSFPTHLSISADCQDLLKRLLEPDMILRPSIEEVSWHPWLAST", "experiment": "Inhibition of human recombinant TSSK3 at 500 nM in presence of ATP by radiometric assay relative to control"}, "[7]": {"molecular_target": "Tyrosine-protein kinase Fgr (Homo sapiens) (UniProt P09769)", "sequence (P09769 2-529 limits assumed)": "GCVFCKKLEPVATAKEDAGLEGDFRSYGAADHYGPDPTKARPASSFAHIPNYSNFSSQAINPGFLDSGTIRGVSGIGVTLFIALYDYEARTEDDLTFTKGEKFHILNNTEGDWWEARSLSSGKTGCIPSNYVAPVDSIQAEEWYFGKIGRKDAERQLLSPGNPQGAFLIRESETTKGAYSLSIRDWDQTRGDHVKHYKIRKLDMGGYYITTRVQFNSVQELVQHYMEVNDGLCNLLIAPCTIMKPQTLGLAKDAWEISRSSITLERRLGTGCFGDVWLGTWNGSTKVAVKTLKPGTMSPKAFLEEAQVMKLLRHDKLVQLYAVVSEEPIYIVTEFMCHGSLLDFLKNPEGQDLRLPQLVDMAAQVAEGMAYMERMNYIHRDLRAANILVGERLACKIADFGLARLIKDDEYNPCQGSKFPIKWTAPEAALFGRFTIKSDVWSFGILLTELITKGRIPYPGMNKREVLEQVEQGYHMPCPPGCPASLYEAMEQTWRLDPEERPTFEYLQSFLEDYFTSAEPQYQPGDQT", "experiment": "Inhibition of human recombinant FGR at 500 nM related to control ULK1"}, "[8]": {"molecular_target": "T4, Dual specificity tyrosine-phosphorylation-regulated kinase 3 (Homo sapiens) (UniProt O43781)", "T4 sequence (whole entry)": "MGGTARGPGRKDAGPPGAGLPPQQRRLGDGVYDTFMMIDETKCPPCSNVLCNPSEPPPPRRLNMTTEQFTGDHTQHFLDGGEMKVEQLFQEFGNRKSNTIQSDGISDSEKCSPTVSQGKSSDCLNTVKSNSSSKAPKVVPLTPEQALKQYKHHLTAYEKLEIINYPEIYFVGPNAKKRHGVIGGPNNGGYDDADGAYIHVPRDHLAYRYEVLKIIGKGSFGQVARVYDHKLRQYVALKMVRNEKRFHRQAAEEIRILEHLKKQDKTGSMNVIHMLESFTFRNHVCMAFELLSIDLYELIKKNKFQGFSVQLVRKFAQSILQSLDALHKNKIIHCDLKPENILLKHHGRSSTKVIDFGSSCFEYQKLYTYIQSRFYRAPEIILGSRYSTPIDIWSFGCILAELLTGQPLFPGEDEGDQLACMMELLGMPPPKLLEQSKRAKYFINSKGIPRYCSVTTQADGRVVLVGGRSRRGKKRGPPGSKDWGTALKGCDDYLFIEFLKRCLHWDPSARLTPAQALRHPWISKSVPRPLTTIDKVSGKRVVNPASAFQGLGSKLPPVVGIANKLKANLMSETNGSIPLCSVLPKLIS", "experiment": "Inhibition of human recombinant DYRK3 at 500 nM in presence of ATP by radiometric assay relative to control"}, "[9]": {"molecular_target": "Calcium/calmodulin-dependent protein kinase type 1 (Homo sapiens) (UniProt Q14012)", "sequence (Q14012 whole entry, looked up)": "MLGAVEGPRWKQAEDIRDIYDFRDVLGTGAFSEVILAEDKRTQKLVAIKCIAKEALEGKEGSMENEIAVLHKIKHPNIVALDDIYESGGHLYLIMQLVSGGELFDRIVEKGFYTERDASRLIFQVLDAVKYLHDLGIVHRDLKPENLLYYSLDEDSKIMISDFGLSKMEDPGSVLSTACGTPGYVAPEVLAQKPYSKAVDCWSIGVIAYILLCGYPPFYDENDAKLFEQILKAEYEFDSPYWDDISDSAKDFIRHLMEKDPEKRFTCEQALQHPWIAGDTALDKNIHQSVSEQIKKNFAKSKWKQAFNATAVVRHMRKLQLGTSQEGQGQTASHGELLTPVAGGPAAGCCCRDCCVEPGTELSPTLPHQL", "experiment": "Inhibition of human recombinant CaMK1a at 500 nM related to control ULK1"}, "[10]": {"molecular_target": "Serine/threonine-protein kinase PRP4 homolog (Homo sapiens) (UniProt Q13523)", "sequence (Q13523 whole entry)": "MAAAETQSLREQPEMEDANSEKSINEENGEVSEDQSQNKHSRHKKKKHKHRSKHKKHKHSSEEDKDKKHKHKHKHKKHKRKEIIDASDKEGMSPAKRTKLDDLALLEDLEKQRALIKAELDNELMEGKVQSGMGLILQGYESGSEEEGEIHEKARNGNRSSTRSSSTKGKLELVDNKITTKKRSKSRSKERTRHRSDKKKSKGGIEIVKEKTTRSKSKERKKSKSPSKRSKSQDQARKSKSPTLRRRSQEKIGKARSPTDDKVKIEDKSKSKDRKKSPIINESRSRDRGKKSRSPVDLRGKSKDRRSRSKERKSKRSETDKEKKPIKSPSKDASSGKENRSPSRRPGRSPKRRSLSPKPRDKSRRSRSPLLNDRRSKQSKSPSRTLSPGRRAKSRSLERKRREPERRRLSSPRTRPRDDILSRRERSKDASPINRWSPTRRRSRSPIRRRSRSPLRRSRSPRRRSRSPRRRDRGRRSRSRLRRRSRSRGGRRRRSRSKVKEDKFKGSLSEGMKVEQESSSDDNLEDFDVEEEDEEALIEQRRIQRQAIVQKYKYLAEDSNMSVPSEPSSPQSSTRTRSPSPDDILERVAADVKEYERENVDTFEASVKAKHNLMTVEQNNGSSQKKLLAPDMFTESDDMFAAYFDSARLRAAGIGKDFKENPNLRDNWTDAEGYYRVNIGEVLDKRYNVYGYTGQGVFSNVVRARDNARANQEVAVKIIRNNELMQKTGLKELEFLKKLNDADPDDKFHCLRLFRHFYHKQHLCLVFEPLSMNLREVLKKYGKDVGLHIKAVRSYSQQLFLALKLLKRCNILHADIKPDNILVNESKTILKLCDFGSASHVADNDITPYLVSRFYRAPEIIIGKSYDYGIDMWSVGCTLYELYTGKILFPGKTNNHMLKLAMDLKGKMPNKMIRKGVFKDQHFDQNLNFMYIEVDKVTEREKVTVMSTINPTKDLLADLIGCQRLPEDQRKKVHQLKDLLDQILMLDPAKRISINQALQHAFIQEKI", "experiment": "Inhibition of human recombinant PRP4 at 15 nM related to control ULK1"}, "[11]": {"molecular_target": "Tyrosine-protein kinase Lck (Homo sapiens) (UniProt P06239)", "sequence (P06239 2-509 limits assumed)": "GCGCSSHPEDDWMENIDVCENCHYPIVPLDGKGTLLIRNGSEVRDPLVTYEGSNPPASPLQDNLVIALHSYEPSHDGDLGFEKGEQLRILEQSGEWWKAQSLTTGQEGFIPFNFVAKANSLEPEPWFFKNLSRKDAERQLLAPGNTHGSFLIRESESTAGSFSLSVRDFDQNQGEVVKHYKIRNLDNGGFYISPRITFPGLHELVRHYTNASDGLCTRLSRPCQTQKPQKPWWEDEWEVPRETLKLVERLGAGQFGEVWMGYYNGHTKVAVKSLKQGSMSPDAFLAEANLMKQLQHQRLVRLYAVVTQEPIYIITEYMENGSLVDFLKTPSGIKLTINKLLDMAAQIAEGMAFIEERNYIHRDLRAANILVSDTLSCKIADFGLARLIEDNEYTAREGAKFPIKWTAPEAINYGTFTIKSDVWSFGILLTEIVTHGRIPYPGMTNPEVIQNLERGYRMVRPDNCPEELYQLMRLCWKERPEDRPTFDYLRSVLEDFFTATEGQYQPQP", "experiment": "Inhibition of human recombinant LCK at 15 nM in presence of ATP by radiometric assay relative to control"}, "[12]": {"molecular_target": "T5, Tribbles homolog 2 (Homo sapiens) (UniProt Q92519)", "T5 sequence (whole entry)": "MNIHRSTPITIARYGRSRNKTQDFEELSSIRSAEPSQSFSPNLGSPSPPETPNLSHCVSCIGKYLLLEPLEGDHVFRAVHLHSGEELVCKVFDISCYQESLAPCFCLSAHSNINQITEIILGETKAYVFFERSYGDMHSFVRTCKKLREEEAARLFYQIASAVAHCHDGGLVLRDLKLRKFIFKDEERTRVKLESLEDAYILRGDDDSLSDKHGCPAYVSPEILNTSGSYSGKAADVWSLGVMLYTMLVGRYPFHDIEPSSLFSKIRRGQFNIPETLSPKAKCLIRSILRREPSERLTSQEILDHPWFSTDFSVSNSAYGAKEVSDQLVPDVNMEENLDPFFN", "experiment": "Inhibition of human recombinant Trb2 at 15 nM in presence of ATP by radiometric assay relative to control"}},
  "data": [
    {"smiles": "O=C(N[C@@H](C1CC1)C(F)(F)F)c1cc(-c2cnn3cc(-c4ccc(F)cc4)cnc23)cs1", "values": [
      {"measurement": "inhibition", "setting": "[1]", "value": 12, "unit": "%"},
      {"measurement": "fold change (FC)", "setting": "[2]", "value": 0},
      {"measurement": "inhibition", "setting": "[3]", "value": 12, "unit": "%"},
      {"measurement": "fold change (FC)", "setting": "[4]", "value": 0},
      {"measurement": "fold change (FC)", "setting": "[5]", "value": 0.53}
    ]},
    {"smiles": "CNC(=O)c1ccccc1Oc1nc(Nc2cc(OC)c(OC)c(OC)c2)ncc1Br", "values": [
      {"measurement": "inhibition", "setting": "[6]", "value": 0, "unit": "%"},
      {"measurement": "fold change (FC)", "setting": "[7]", "value": 0.11},
      {"measurement": "inhibition", "setting": "[8]", "value": 0, "unit": "%"},
      {"measurement": "fold change (FC)", "setting": "[9]", "value": 0}
    ]},
    {"smiles": "CC(C)[C@H](NC(=O)c1cc(-c2cnn3cc(-c4ccc(OCCN5CCCCC5)cc4)cnc23)cs1)C(F)(F)F", "values": [
      {"measurement": "fold change (FC)", "setting": "[10]", "value": 0.07},
      {"measurement": "inhibition", "setting": "[11]", "value": 11, "unit": "%"},
      {"measurement": "inhibition", "setting": "[12]", "value": 36, "unit": "%"}
    ]}
  ]
}
